What was measured:
[1] = tested on: hApoA-1 mRNA; test: Up-regulation of hApoA-1 mRNA transcription in Huh7 cells; type: cell-based, human; design: key: Active: Compounds with an EC170 value less than 30 μM are deemed to be active.; Not Active: Compounds with an EC170 value less than 30 μM are deemed to be active; details: 48 hrs treatment, ApoA-I mRNA
Experimental: In this example, ApoA-I mRNA in tissue culture cells was quantitated to measure the transcriptional up-regulation of ApoA-I when treated with a compound of the present disclosure.
Huh7 cells ([…] per well) were plated in a 96-well plate using 100 μL DMEM per well, (Gibco DMEM supplemented with penicillin/streptomycin and 10% FBS), 24 h before the addition of the compound of interest. After 48 hrs treatment, the spent media was removed from the Huh-7 cells and placed on ice (for immediate use) or at −80° C. (for future use) with the “LDH cytotoxicity assay Kit II” from Abcam. The cells remaining in the plate were rinsed with 100 μL PBS.
Then 85 μL of cell lysis solution was added to each well and incubated for 5-10 minutes at room temperature, to allow for complete cell lysis and detachment. mRNA was then prepared using the “mRNA Catcher PLUS plate” from Life Technologies, according to the protocol supplied. After the last wash, as much wash buffer as possible was aspirated without allowing the wells to dry. Elution Buffer (E3, 80 μL) was then added to each well. mRNA was then eluted by incubating the mRNA Catcher PLUS plate with Elution Buffer for 5 minutes at 68° C., and then 1 minute at 4° C. Catcher plates with mRNA eluted were kept on ice for use or stored at −80° C.
The eluted mRNA isolated was then used in a one-step real-time PCR reaction, using components of the Ultra Sense Kit together with Life Technologies primer-probe mixes. Real-time PCR data was analyzed, using the Ct values, to determine the fold induction of each unknown sample, relative to the control (that is, relative to the control for each independent DMSO concentration).
Compounds with an EC170 value less than 30 μM are deemed to be active.

[2] = tested on: c-myc; test: Inhibition of c-myc expression in cancer cell lines (mRNA, real-time PCR); type: cell-based; design: key: Active: Compounds with an IC50 value less than 30 μM were deemed to be active; details: Human AML MV4-11 cells, 3 hours
Method in brief: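 MV4-11 cells (2.5×10^4) exposed to compound or 0.1% DMSO for 3 h at 37° C, then lysed for mRNA isolation. c-myc and cyclophilin cDNAs co-amplified by duplex RT real-time PCR. IC50 from dose-response curve.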

[3] = tested on: Human AML MV-4-11 cells; test: Inhibition of cell proliferation in cancer cell lines (CellTiter Aqueous One); type: cell-based; design: key: Active: Compounds with an IC50 value less than 30 μM were deemed to be active.; Not Active: Compounds with an IC50 value less than 30 μM were deemed to be active; details: 72 hours
Method in brief: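 Exponentially growing MV-4-11 cells were treated immediately with two-fold compound dilutions from 30 µM to 0.2 µM in triplicate for 72 h at 37 °C. Viability was read by MTS (CellTiter Aqueous One) absorbance at 490 nm after 3-4 h; % proliferation vs DMSO gave IC50.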

[4] = tested on: hIL-6 mRNA; test: Inhibition of hIL-6 mRNA transcription in LPS-stimulated U937 macrophages; type: cell-based, human; design: key: Active: Compounds with an IC50 value less than 30 μM are deemed to be active; details: U937 differentiated into macrophages, 1 h pretreatment, lipopolysaccharide 3 h
Method in brief: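 U937 cells differentiated 3 days with 60 ng/mL PMA, pretreated 1 h with compound, then stimulated with […] E. coli LPS for 3 h at 37° C. hIL-6 mRNA quantified by one-step real-time RT-PCR, Ct normalised to internal control and expressed as fold induction relative to control.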

[5] = molecular target: T1, Brd4 bromodomain 1 (Homo sapiens, UniProt O60885); test: Inhibition of tetra-acetylated histone H4 binding to BET bromodomains (TR-FRET); design: key: Active: Compounds with an IC50 value less than 30 μM were deemed to be active.; Not Active: Compounds with an IC50 value less than 30 μM were deemed to be active; details: first bromodomain of Brd4, tetra-acetylated histone H4 peptide
T1 construct: made in house; host or cells: E. coli BL21(DE3)
Method in brief: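 TR-FRET with N-terminally His-tagged bromodomains (200 nM, E. coli-expressed, Ni affinity and SEC-purified) and biotinylated tetra-acetylated histone H4 peptide (25–50 nM), detected with Eu-cryptate streptavidin and XL665 anti-His antibody. Buffer 30 mM HEPES pH 7.4, 320 mM KF, 0.08% BSA, 0.2% DMSO; 2 h RT. IC50 from decrease in 665/620 nm ratio.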

SMILES | c-myc activity (IC50 < 30 μM) [2] | cell proliferation activity (IC50 < 30 μM) [3] | IL-6 activity (IC50 < 30 μM) [4] | melting point [°C] | FRET activity (IC50 < 30 μM) [5] | ApoA-1 Activity (EC170 < 30 μM) [1]
COc1cc(OC)c2c(=O)[nH]c(-c3ccc(OCCNC(C)C)c(-c4ccc(S(C)(=O)=O)cc4C(F)(F)F)n3)nc2c1 [Example 46, 2-(5-(2-(Isopropylamino)ethoxy)-6-(4-(methylsulfonyl)-2-(trifluoromethyl)phenyl)pyridin-2-yl)-5,7-dimethoxyquinazolin-4(3H)-one] | Active | Active | Active | 199 to 201 | Active | Active
COc1cc(OC)c2c(=O)[nH]c(-c3ccc(OCCN4CCCC4)c(-c4ccc([S+](C)[O-])cc4)n3)nc2c1 (stereo not drawn) [Example 55, 5,7-Dimethoxy-2-(6-(4-(methylsulfinyl)phenyl)-5-(2-(pyrrolidin-1-yl)ethoxy)pyridin-2-yl)quinazolin-4(3H)-one] | Not Active | Active | Active | 103 to 105 | Active | Active
COc1cc(OC)c2c(=O)[nH]c(-c3ccc(OCCO)c(-c4ccc(C(=O)N(C)C)cc4C)n3)nc2c1 [Example 3, 4-(6-(5,7-Dimethoxy-4-oxo-3,4-dihydroquinazolin-2-yl)-3-(2-hydroxyethoxy)pyridin-2-yl)-N,N,3-trimethylbenzamide] | Not Active | Not Active | Active | – | Active | Active
COc1cc(OC)c2c(=O)[nH]c(-c3ccc(OCCO)c(-c4ccc(C(=O)N(C)C)cc4Cl)n3)nc2c1 [Example 5, 3-Chloro-4-(6-(5,7-dimethoxy-4-oxo-3,4-dihydroquinazolin-2-yl)-3-(2-hydroxyethoxy)pyridin-2-yl)-N,N-dimethylbenzamide] | Active | Active | Active | – | Active | Active
COc1cc(OC)c2c(=O)[nH]c(-c3ccc(OCCO)c(-c4ccc(S(C)(=O)=O)cc4C)n3)nc2c1 [Example 39, 2-(5-(2-Hydroxyethoxy)-6-(2-methyl-4-(methylsulfonyl)phenyl)pyridin-2-yl)-5,7-dimethoxyquinazolin-4(3H)-one] | Active | Active | Active | – | Active | Active
COc1cc(OC)c2c(=O)[nH]c(-c3ccc(OCCNC(C)C)c(-c4ccc(C(=O)N(C)C)cc4Cl)n3)nc2c1 [Example 6, 3-Chloro-4-(6-(5,7-dimethoxy-4-oxo-3,4-dihydroquinazolin-2-yl)-3-(2-(isopropylamino)ethoxy)pyridin-2-yl)-N,N-dimethylbenzamide] | Active | Active | Active | – | Active | Active
CCS(=O)(=O)c1ccc(-c2nc(-c3nc4cc(OC)cc(OC)c4c(=O)[nH]3)ccc2OCCN2CCOCC2)cc1 [Example 43, 2-(6-(4-(Ethylsulfonyl)phenyl)-5-(2-morpholinoethoxy)pyridin-2-yl)-5,7-dimethoxyquinazolin-4(3H)-one] | Active | Active | Active | – | Active | Active
COc1cc(OC)c2c(=O)[nH]c(-c3ccc(OCCNC(C)C)c(-c4ccc(C(=O)N(C)C)cc4C)n3)nc2c1 [Example 4, 4-(6-(5,7-dimethoxy-4-oxo-3,4-dihydroquinazolin-2-yl)-3-(2-(isopropylamino)ethoxy)pyridin-2-yl)-N,N,3-trimethylbenzamide] | Active | Active | Active | – | Active | Active

Now from value to compound, other results behind:

c-myc activity (IC50 < 30 μM) [2] | cell proliferation activity (IC50 < 30 μM) [3] | IL-6 activity (IC50 < 30 μM) [4] | melting point [°C] | FRET activity (IC50 < 30 μM) [5] | SMILES | ApoA-1 Activity (EC170 < 30 μM) [1]
Active | Not Active | Active | – | Active | COc1cc(OC)c2c(=O)[nH]c(-c3ccc(OC4CN(C)C4)c(-c4ccc(C#N)cc4)c3)nc2c1 [Example 19, 5′-(5,7-Dimethoxy-4-oxo-3,4-dihydroquinazolin-2-yl)-2′-((1-methylazetidin-3-yl)oxy)-[1,1′-biphenyl]-4-carbonitrile] | Active
Active | Active | Active | – | Active | COc1cc(OC)c2c(=O)[nH]c(-c3ccc(OCCNC(C)C)c(-c4ccc(S(C)(=O)=O)cc4)c3)nc2c1 [Example 44, 2-(6-(2-(Isopropylamino)ethoxy)-4′-(methylsulfonyl)-[1,1′-biphenyl]-3-yl)-5,7-dimethoxyquinazolin-4(3H)-one] | Active
Active | Not Active | Active | – | Active | COc1cc(OC)c2c(=O)[nH]c(-c3ccc(OC4CNC4)c(-c4ccc(C#N)cc4)c3)nc2c1 [Example 18, 2′-(Azetidin-3-yloxy)-5′-(5,7-dimethoxy-4-oxo-3,4-dihydroquinazolin-2-yl)-[1,1′-biphenyl]-4-carbonitrile] | Active
Active | Active | Active | – | Active | COc1cc(OC)c2c(=O)[nH]c(-c3ccc(OCCNC(C)C)c(-c4ccc([S+](C)[O-])cc4)c3)nc2c1 (stereo not drawn) [Example 17, 2-(6-(2-(Isopropylamino)ethoxy)-4′-(methylsulfinyl)biphenyl-3-yl)-5,7-dimethoxyquinazolin-4(3H)-one] | Active
Active | Not Active | Active | – | Active | COc1cc(F)cc2nc(-c3ccc(OC4CN(C)C4)c(-c4ccc([S+](C)[O-])cc4)c3)[nH]c(=O)c12 (stereo not drawn) [Example 15, 7-Fluoro-5-methoxy-2-(6-((1-methylazetidin-3-yl)oxy)-4′-(methylsulfinyl)-[1,1′-biphenyl]-3-yl)quinazolin-4(3H)-one] | Active
Active | Not Active | Active | – | Active | COc1cc(OC)c2c(=O)[nH]c(-c3ccc(OCCO)c(-c4ccc(C(=O)N(C)C)cc4)n3)nc2c1 [Example 23, 4-(6-(5,7-Dimethoxy-4-oxo-3,4-dihydroquinazolin-2-yl)-3-(2-hydroxyethoxy)pyridin-2-yl)-N,N-dimethylbenzamide] | Active

Source: patent US9765039B2, “Biaryl derivatives as bromodomain inhibitors” (Zenith Epigenetics Ltd., priority 2012, dated 2017)
